Data set [1] is described as follows: Inhibition of PI3K (unknown origin). The arrangement: species or system Homo sapiens.
Data set [2] is described as follows: Inhibition of human recombinant Phosphatidylinositol 4-kinase type 3-alpha expressed in Sf9 cells assessed as reduction in […] by pyruvate kinase and lactate dehydrogenase coupled assay.
Data set [3] in a line: Inhibition of human recombinant Phosphatidylinositol 4-kinase type 3-beta expressed in Sf9 cells assessed as reduction in […] by pyruvate kinase and lactate dehydrogenase coupled assay.
For data set [4], the system named is Hepatitis C virus. Nature of the data set: Antiviral activity against Hepatitis C virus genotype 1b Con1 infected in HuH7 cells by cell based replicon assay. As to conditions: genotype 1b Con1, Huh-7. In kind it is functional, Hepacivirus hominis.
Data set [5] relates to Hepatitis C virus. As to the kind of experiment: Antiviral activity against Hepatitis C virus subtype 1a infected in HuH7 cells by cell based replicon assay. In kind it is functional, Hepacivirus hominis. The settings on record: Huh-7.
Data set [6] deals with Hepatitis C virus. Nature of the data set: Antiviral activity against Hepatitis C virus subtype 2a JFH-1 infected in HuH7 cells by cell based replicon assay. In kind it is functional, Hepacivirus hominis. The settings on record: genotype 2a JFH-1, Huh-7.
Data set [7] in a line: Cytotoxicity against Hepatitis C virus genotype 1b Con1 infected human HuH7 cells after 48 hrs by MTT assay. In kind it is cell-based, Huh-7. The settings on record: HuH7 cells infected with Hepatitis C virus genotype 1b Con1.
A short description of data set [8]: Aqueous solubility at room temperature after 24 hrs by HPLC method. In kind it is physicochemical. The settings on record: aqueous medium.

The record followed here is ChEMBL document CHEMBL3351967, “2-Alkyloxazoles as potent and selective PI4KIIIβ inhibitors demonstrating inhibition of HCV replication” (Bioorg Med Chem Lett, 2014).

The structures appear in SMILES notation. pEC50, pIC50: −log10 of the molar value. In brackets after ≈: the same amount, converted by molar mass.

Consider `Cc1ccc(-c2cnc(C3CC3)o2)cc1S(=O)(=O)Nc1ccccc1Cl`, for which the values for the pIC50 in data set [1], in data set [2] and in data set [3] were 5.62, less than 5.00 and 6.87, respectively. Further, the pEC50 in data set [4] is 5.99; in data set [5], 5.80; in data set [6] it was 5.74. In data set [7], this compound yielded a CC50 at 48 h of more than 31 µM. Further, the solubility at 24 h in data set [8] was less than 2 µM.
Take `Cc1ccc(-c2cnc(C3CC3)o2)cc1S(=O)(=O)N[C@H]1CC[C@H](O)CC1`: the negative-log IC50 (pIC50) in data set [1] was less than 5.04; in data set [3] it was 7.31. The negative-log EC50 (pEC50) is 7.00 in data set [4] and 6.78 in data set [5]. In data set [7], this compound came in with a CC50 at 48 h of more than 31 µM. The compound also displayed a solubility at 24 h in data set [8] of 220 µM (≈ 82.8 µg/mL).
Regarding `Cc1cc(-c2cnc(C3CC3)o2)cc(S(=O)(=O)N[C@H]2CC[C@H](O)CC2)c1C`, in data set [3], the pIC50 was less than 5.60. The pEC50 in data set [4] is 5.17; in data set [5] it was 5.68. The compound further displayed a cytotoxic concentration (CC50) at 48 h in data set [7] of more than 31 µM.
On to `Cc1ccc(-c2oc(C3CC3)nc2C)cc1S(=O)(=O)N[C@H]1CC[C@H](O)CC1`, for which the values for the negative logarithm of the IC50 (pIC50) in data set [1], in data set [2] and in data set [3] were 5.20, less than 5.00 and 7.74, respectively. Further, the pEC50 in data set [4] was 7.34; in data set [5], 7.23; in data set [6] it was 6.43. The half-maximal cytotoxic concentration (CC50) at 48 h in data set [7] is more than 31 µM.
With `COc1ccc(-c2oc(C3CC3)nc2C)cc1S(=O)(=O)N[C@H]1CC[C@H](O)CC1`, the pIC50 is 5.09 in data set [1], less than 5.00 in data set [2] and 7.72 in data set [3]. Besides, the figures for the negative-log EC50 (pEC50) in data set [4], in data set [5] and in data set [6] were 7.47, 7.18 and 6.49, respectively. The 50% cytotoxic concentration (CC50) at 48 h in data set [7] is more than 31 µM.
In the case of `COc1ccc(-c2ocnc2C)cc1S(=O)(=O)N[C@H]1CC[C@H](O)CC1`, the pIC50 in data set [3] is 5.79. This compound showed a pEC50 in data set [4] of less than 5.00. The CC50 at 48 h in data set [7] was more than 31 µM.
As to `COc1ccc(-c2oc(C)nc2C)cc1S(=O)(=O)N[C@H]1CC[C@H](O)CC1`, in data set [3], the pIC50 is 6.38. In data set [4], this compound showed a pEC50 of 5.49. For the same compound, the CC50 at 48 h in data set [7] was more than 31 µM.
Regarding `COc1ccc(-c2oc(C3(C)CC3)nc2C)cc1S(=O)(=O)N[C@H]1CC[C@H](O)CC1`, the negative-log IC50 (pIC50) in data set [3] is 7.55. The figures for the negative logarithm of the EC50 (pEC50) in data set [4], in data set [5] and in data set [6] were 7.39, 7.07 and 6.83, respectively. Besides, the CC50 at 48 h in data set [7] is more than 31 µM.
In the case of `COc1ccc(-c2oc(C3CCCC3)nc2C)cc1S(=O)(=O)N[C@H]1CC[C@H](O)CC1`, in data set [3], the pIC50 was 8.05. Moreover, the negative-log EC50 (pEC50) in data set [4] is 7.52. In addition, the CC50 at 48 h in data set [7] is more than 31 µM.
In the case of `COc1ccc(-c2oc(C3CCCCC3)nc2C)cc1S(=O)(=O)N[C@H]1CC[C@H](O)CC1`, the pIC50 in data set [3] is 7.72. The compound also showed a pEC50 in data set [4] of 6.97. In data set [7], this compound yielded a CC50 at 48 h of more than 31 µM.
For `COc1ccc(-c2oc(C3CCC(CO)CC3)nc2C)cc1S(=O)(=O)N[C@H]1CC[C@H](O)CC1` (some centres undefined), in that order: 8.05, 7.49 and more than 31 µM.
For `COc1ccc(-c2oc(C3CCOCC3)nc2C)cc1S(=O)(=O)N[C@H]1CC[C@H](O)CC1`, in that order: 7.44, 6.40 and more than 31 µM.
`COc1ccc(-c2oc(-c3ccccc3)nc2C)cc1S(=O)(=O)N[C@H]1CC[C@H](O)CC1`: the negative-log IC50 (pIC50) in data set [3] was 7.43. This compound also gave a negative-log EC50 (pEC50) in data set [4] of 6.71. The CC50 at 48 h in data set [7] was more than 31 µM.
For `COc1ccc(-c2oc(-c3ccncc3)nc2C)cc1S(=O)(=O)N[C@H]1CC[C@H](O)CC1`, in that order: 6.72, 6.39 and more than 31 µM.
`COc1ccc(-c2oc(Cc3ccccc3)nc2C)cc1S(=O)(=O)N[C@H]1CC[C@H](O)CC1`: in data set [3], the pIC50 was 8.40. Besides, the pEC50 in data set [4] is 7.39; in data set [5], 7.28; in data set [6] it was 6.42. This compound displayed a 50% cytotoxic concentration (CC50) at 48 h in data set [7] of more than 31 µM.
Take `COc1ccc(-c2oc(C3CC3)nc2C)cc1`: the negative-log IC50 (pIC50) in data set [3] was less than 5.60. The same compound gave a negative logarithm of the EC50 (pEC50) in data set [4] of less than 4.52. In addition, in data set [7], the CC50 at 48 h was more than 31 µM.
For `COc1ccc(-c2oc(C3CC3)nc2C)cc1S(C)(=O)=O`, in that order: 7.12, 6.92 and more than 31 µM.
For the compound `COc1ccc(-c2oc(C3CC3)nc2C)cc1S(=O)(=O)CC1CCC(O)CC1` (centres undefined), the pIC50 in data set [3] was 7.10. Also, the negative-log EC50 (pEC50) in data set [4] was 7.17. The compound further came in with a CC50 at 48 h in data set [7] of more than 31 µM.
For `COc1ccc(-c2oc(C3CC3)nc2C)cc1C(=O)N[C@H]1CC[C@H](O)CC1`, in data set [3], the pIC50 is 5.01. The compound also showed a pEC50 in data set [4] of 5.45. For the same compound, the 50% cytotoxic concentration (CC50) at 48 h in data set [7] was more than 31 µM.
For the compound `COc1ccc(-c2oc(C3CC3)nc2C)cc1S(=O)(=O)Nc1cccc(C#N)c1`, the negative-log IC50 (pIC50) in data set [3] was 7.96. In data set [4], this compound had a negative logarithm of the EC50 (pEC50) of more than 7.52. In data set [7], this compound gave a CC50 at 48 h of more than 31 µM.
For `COc1ccc(-c2oc(C3CC3)nc2C)cc1S(=O)(=O)NCCO`, in that order: 7.57, 7.37 and more than 31 µM.
For `COc1ccc(-c2oc(C3CC3)nc2C)cc1S(N)(=O)=O`, in that order: 7.19, 7.17 and more than 31 µM.
As for `COc1ccc(-c2oc(C3CC3)nc2C)cc1S(=O)(=O)NCC(C)(C)O`, the pIC50 in data set [3] is 7.48. The pEC50 in data set [4] is 6.94. In data set [7], this compound had a half-maximal cytotoxic concentration (CC50) at 48 h of more than 31 µM.
For `COc1ccc(-c2cnc(C3CC3)o2)cc1S(=O)(=O)N[C@H]1CC[C@H](O)CC1`, in that order: 7.43, 6.71 and more than 31 µM.
Consider `COc1ccc(-c2cc(C3CC3)nn2C)cc1S(=O)(=O)N[C@H]1CC[C@H](O)CC1`, for which the pIC50 in data set [3] was 7.27. In data set [4], this compound had a pEC50 of 6.45. For the same compound, the 50% cytotoxic concentration (CC50) at 48 h in data set [7] is more than 31 µM.
With `COc1ccc(-c2[nH]c(C3CC3)nc2C)cc1S(=O)(=O)N[C@H]1CC[C@H](O)CC1`, the pIC50 in data set [3] was 5.99. Moreover, the pEC50 in data set [4] was 5.00. Further, the 50% cytotoxic concentration (CC50) at 48 h in data set [7] was more than 31 µM.
